Experimental data reported in PubChem BioAssay AID1259407 (Chemical Carcinogenesis Research Information System (CCRIS), 2018).
Calls of active or inactive are those of the source. No rule for the calls is given here.

Tested on: CCRIS mutagenicity, Ames/micronucleus/aberration tests
Test: CCRIS mutagenicity studies
Details: Test System: AMES SALMONELLA TYPHIMURIUM
[1] = Strain/Indicator: TA98, Metabolic Activation: NONE, Method: PREINCUBATION
[2] = Strain/Indicator: TA100, Metabolic Activation: NONE, Method: PREINCUBATION

With `Cc1cc(=O)n(-c2ccccc2)n1C` as the compound, how does the mutagenic call (Strain/Indicator: TA97, Metabolic Activation: NONE, Method: STANDARD PLATE) read?
The mutagenic call was “inactive; negative”.

What about the mutagenic call (Strain/Indicator: TA97, Metabolic Activation: RAT, LIVER, S-9, AROCLOR 1254, Method: STANDARD PLATE) of the same compound?
The mutagenic call was “inactive; negative”.

What about the mutagenic call (Strain/Indicator: TA97A, Metabolic Activation: NONE, Method: STANDARD PLATE) of the same compound?
Its mutagenic call is “inactive; negative”.

What about the mutagenic call (Strain/Indicator: TA97A, Metabolic Activation: RAT LIVER S-9, PHENOBARBITAL, Method: STANDARD PLATE) of the same compound?
Its mutagenic call is “inactive; negative”.

What about the mutagenic call (Strain/Indicator: TA98, Metabolic Activation: GUINEA PIG, LIVER, S-9, PCB, Method: PREINCUBATION) of the same compound?
The mutagenic call was “inactive; negative”.

And the mutagenic call (Strain/Indicator: TA98, Metabolic Activation: HAMSTER, LIVER, S-9, PCB, Method: PREINCUBATION)?
Its mutagenic call is “inactive; negative”.

What about the mutagenic call (Strain/Indicator: TA98, Metabolic Activation: MOUSE, LIVER, S-9, PCB, Method: PREINCUBATION) of the same compound?
Its mutagenic call is “inactive; negative”.

And the mutagenic call [1]?
The mutagenic call was “inactive; negative”.

What about the mutagenic call (Strain/Indicator: TA98, Metabolic Activation: NONE, Method: STANDARD PLATE) of the same compound?
The mutagenic call was “inactive; negative”.

And the mutagenic call (Strain/Indicator: TA98, Metabolic Activation: RAT LIVER S-9, PHENOBARBITAL, Method: STANDARD PLATE)?
Its mutagenic call is “inactive; negative”.

What about the mutagenic call (Strain/Indicator: TA98, Metabolic Activation: RAT, LIVER, S-9, AROCLOR 1254, Method: STANDARD PLATE) of the same compound?
Its mutagenic call is “inactive; negative”.

And the mutagenic call (Strain/Indicator: TA98, Metabolic Activation: RAT, LIVER, S-9, PCB, Method: PREINCUBATION)?
Its mutagenic call is “inactive; negative”.

And the mutagenic call (Strain/Indicator: TA100, Metabolic Activation: GUINEA PIG, LIVER, S-9, PCB, Method: PREINCUBATION)?
The mutagenic call was “inactive; negative”.

And the mutagenic call (Strain/Indicator: TA100, Metabolic Activation: HAMSTER, LIVER, S-9, PCB, Method: PREINCUBATION)?
The mutagenic call was “inactive; negative”.

And the mutagenic call (Strain/Indicator: TA100, Metabolic Activation: MOUSE, LIVER, S-9, PCB, Method: PREINCUBATION)?
The mutagenic call was “inactive; negative”.

And the mutagenic call [2]?
The mutagenic call was “inactive; negative”.

What about the mutagenic call (Strain/Indicator: TA100, Metabolic Activation: NONE, Method: STANDARD PLATE) of the same compound?
The mutagenic call was “inactive; negative”.

What about the mutagenic call (Strain/Indicator: TA100, Metabolic Activation: RAT LIVER S-9, PHENOBARBITAL, Method: STANDARD PLATE) of the same compound?
The mutagenic call was “inactive; negative”.

What about the mutagenic call (Strain/Indicator: TA100, Metabolic Activation: RAT, LIVER, S-9, AROCLOR 1254, Method: STANDARD PLATE) of the same compound?
Its mutagenic call is “inactive; negative”.

And the mutagenic call (Strain/Indicator: TA100, Metabolic Activation: RAT, LIVER, S-9, PCB, Method: PREINCUBATION)?
The mutagenic call was “inactive; negative”.

What about the mutagenic call (Strain/Indicator: TA102, Metabolic Activation: NONE, Method: STANDARD PLATE) of the same compound?
The mutagenic call was “inactive; negative”.

What about the mutagenic call (Strain/Indicator: TA102, Metabolic Activation: RAT LIVER S-9, PHENOBARBITAL, Method: STANDARD PLATE) of the same compound?
The mutagenic call was “inactive; negative”.

And the mutagenic call (Strain/Indicator: TA102, Metabolic Activation: RAT, LIVER, S-9, AROCLOR 1254, Method: STANDARD PLATE)?
The mutagenic call was “inactive; negative”.

What about the mutagenic call (Strain/Indicator: TA104, Metabolic Activation: NONE, Method: STANDARD PLATE) of the same compound?
The mutagenic call was “inactive; negative”.

What about the mutagenic call (Strain/Indicator: TA104, Metabolic Activation: RAT, LIVER, S-9, AROCLOR 1254, Method: STANDARD PLATE) of the same compound?
Its mutagenic call is “inactive; negative”.

With `Cc1ccc2nc3c(ccc4ccccc43)cc2c1` as the compound, how does the mutagenic call (Strain/Indicator: TA97A, Metabolic Activation: NONE, Method: PREINCUBATION) read?
The mutagenic call was “inactive; negative”.

What about the mutagenic call [1] of the same compound?
Its mutagenic call is “inactive; negative”.

And the mutagenic call [2]?
Its mutagenic call is “active; positive”.

And the mutagenic call (Strain/Indicator: TA102, Metabolic Activation: NONE, Method: PREINCUBATION)?
The mutagenic call was “active; positive”.
